Measured values published in ChEMBL document CHEMBL3632553, “New fluorinated agonists for targeting the sphingosin-1-phosphate receptor 1 (S1P(1))” (2015).
Calls of active or inactive are those of the source. No cut-off for these calls is given here.

Key:
[1] = target: Sphingosine 1-phosphate receptor 1 (Homo sapiens) (UniProt P21453); test: Agonist activity at human sphingosin-1-phosphate receptor 1 expressed in CHO cells assessed as phosphorylation status of p44/42 MAPK after 2.5 mins by Western blotting; assay type: cell-based
[2] = target: Sphingosine 1-phosphate receptor 1 (Homo sapiens) (UniProt P21453); test: Agonist activity at human sphingosin-1-phosphate receptor 1 expressed in CHO cells assessed as phosphorylation status of p44/42 MAPK after 10 mins by Western blotting; assay type: cell-based
[3] = target: Sphingosine 1-phosphate receptor 1 (Homo sapiens) (UniProt P21453); test: Agonist activity at human sphingosin-1-phosphate receptor 1 expressed in CHO cells assessed as phosphorylation status of p44/42 MAPK after 5 mins by Western blotting; assay type: cell-based
Mus musculus [4] = test: Immunosuppressive activity in mouse assessed as reduction of CD8+ level in peripheral blood assessed per 10^6 cells at 1.25 mg/kg, ip after 24 hrs by flow cytometry (reference value: 0.48 +/- 0.05 ml); assay type: functional
Mus musculus [5] = test: Immunosuppressive activity in mouse assessed as reduction of WBC level in peripheral blood assessed per 10^6 cells at 1.25 mg/kg, ip after 24 hrs by flow cytometry (reference value: 8.94 +/- 0.59 ml); assay type: functional
Mus musculus [6] = test: Immunosuppressive activity in mouse assessed as reduction of B-cells level in peripheral blood assessed per 10^6 cells at 1.25 mg/kg, ip after 24 hrs by flow cytometry (reference value: 4.72 +/- 0.53 ml); assay type: functional
Mus musculus [7] = test: Immunosuppressive activity in mouse assessed as reduction of CD4+ level in peripheral blood assessed per 10^6 cells at 1.25 mg/kg, ip after 24 hrs by flow cytometry (reference value: 0.73 +/- 0.07 ml); assay type: functional
Mus musculus [8] = test: Immunosuppressive activity in mouse assessed as induction of lymphopenia at 1.25 mg/kg, ip after 24 hrs by flow cytometry; assay type: functional

Sphingosine 1-phosphate receptor 1 (Homo sapiens), sequence (P21453 whole entry): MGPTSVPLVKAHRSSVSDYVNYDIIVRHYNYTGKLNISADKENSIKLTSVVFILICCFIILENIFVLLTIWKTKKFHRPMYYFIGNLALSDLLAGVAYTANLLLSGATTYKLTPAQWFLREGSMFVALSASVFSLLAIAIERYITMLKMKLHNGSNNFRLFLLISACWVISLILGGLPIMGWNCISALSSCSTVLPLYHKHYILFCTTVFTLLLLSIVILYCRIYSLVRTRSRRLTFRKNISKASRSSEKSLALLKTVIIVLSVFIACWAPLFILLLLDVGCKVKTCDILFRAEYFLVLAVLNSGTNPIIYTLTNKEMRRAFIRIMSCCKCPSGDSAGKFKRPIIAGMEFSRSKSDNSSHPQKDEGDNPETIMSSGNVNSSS

Structure (SMILES) | Activity [1] | Activity [2] | Activity [3] | cell count (Mus musculus [4]) | cell count (Mus musculus [5]) | cell count (Mus musculus [6]) | cell count (Mus musculus [7]) | Activity (Mus musculus [8]) [%]
NC(CO)(CO)CCCCCCCCCCc1ccc(C(F)(F)F)cc1 | Active | Active | Active |  |  |  |  | 
NC(CO)(CO)CCCCCCCCCCCCCCC(F)F | Active | Active | Active | 0.04 10^6 cells/mL | 1.67 10^6 cells/mL | 0.29 10^6 cells/mL | 0.03 10^6 cells/mL | 95
NC(CO)(CO)CCCCCCCCCCc1c(F)c(F)c(F)c(F)c1F | Active | Active | Active |  |  |  |  | 
NC(CO)(CO)CCCCCCCCCCc1ccccc1 | Active | Active | Active |  |  |  |  | 
NC(CO)(CO)CCCCCCCCCCc1cccc(S(F)(F)(F)(F)F)c1 | Active | Active | Active |  |  |  |  | 
NC(CO)(CO)CCCCCCCCCCc1ccc(F)cc1 | Active | Active | Active |  |  |  |  | 
NC(CO)(CO)CCCCCCCCCCc1ccc(S(F)(F)(F)(F)F)cc1 | Active | Active | Active |  |  |  |  | 
CCCCCCCCc1ccc(CCC(N)(CO)CO)cc1 [FINGOLIMOD] |  |  |  | 0.04 10^6 cells/mL | 3.69 10^6 cells/mL | 0.61 10^6 cells/mL | 0.02 10^6 cells/mL | 97
